Experimental findings from patent US9765113B2, “Methods and agents for the treatment of cancer” (INTERK PEPTIDE THERAPEUTICS LIMITED, priority 2003, dated 2017) are described below.

For one series, the system named is HUVEC cells. In words: Cell proliferation assay using MTT. In kind it is cell-based, human. As for the experimental part: The ability of the 10(4) peptide […] (SEQ ID No: 7) linked to the signal peptide […] (SEQ ID No: 1) to inhibit the proliferation of the above cell lines was assessed using the cell proliferation assay described in Example 2.1.
Series [1] relates to HT29 colon cancer xenografts. Nature of the series: In vivo tumour growth of HT29 colon cancer xenografts. Further details: species or system Balb/c athymic mice. The method, then:
Balb/c female athymic mice (8 weeks of age obtained from the Animal Resource Centre, Perth, Western Australia) were maintained under pathogen-free conditions and fed standard mouse chow and water ad lib. The mice were divided into groups of ten each. Mice in different groups were marked by ear notching. Briefly, the mice were anaesthetised using isoflurothane by inhalation and their ears marked using a surgical punch. After a recovery period of 48 hours, the mice in each group were injected with 1×10^6 HT29 colon cancer cells in standard DMEM culture medium subcutaneously dorsally behind the right shoulder using a 21-gauge needle. Animal weights and tumour sizes (breadth and length measured with callipers) were recorded weekly. Mice were sacrificed by CO2 asphyxiation and tumour mass excised for measurement.
Mice were injected twice weekly for four weeks commencing 10 days after tumour cell inoculation with DMEM, signal peptide ([…]) (designated “carrier”) (SEQ ID No: 1) or the […] (IK-1) (SEQ ID No: 19) peptide agent, and tumour growth was compared to an untreated control group.
Colon cancer inhibition by peptide […] (IK2P) (SEQ ID No: 18) administered intravenously to colon tumour bearing Balb/c athymic mice as per the protocol described above, is shown in FIG. 20. Colon tumour xenografts were achieved by injection of 1×10^6 HT29 colon cancer cells as above. […]

The next series deals with ERK2. In words: ELISA assay for detection of MAP kinase binding to biotinylated peptide. The conditions noted are these: result in words. The method, then: (§1) An assay was developed for detecting the ability of MAP kinases to bind with a peptide agent in solution.
(§2) Briefly, the MAP kinase is added to an eppendorf tube containing a biotinylated test peptide in phosphate buffered saline (PBS) at pH 7.4. The mixture is allowed to stand at room temperature for 10 minutes with occasional mixing by gentle inversion of the tube. The MAP kinase/test peptide mixture is then transferred to a pre-washed (PBS×3×100 μl) 96-well streptavidin coated ELISA microtitre plate and allowed to stand for 60 minutes at room temperature. At the end of the 60 minute period, the MAP kinase/test peptide mixture is tipped from the ELISA plate and the wells washed 3 times with wash solution (PBS+0.05% Tween−20).
(§3) Primary antibody detection for the MAP kinase is then added to the test wells and the ELISA plate is allowed to stand for a further 30 minutes at room temperature before the antibody solution is decanted from the plate and the wells again washed with the wash solution. Optimal dilutions of primary detection antibody are pre-determined for each target MAP kinase. Alkaline-phosphatase or other enzyme conjugated anti-primary species antibody at a dilution of 1:2000 v/v is subsequently added to the wells and the microtitre plate is allowed to stand for another 30 minutes at room temperature, before the washing step is repeated and phosphatase detection reagent is added to the wells and the colour reaction allowed to develop. The wells are read at 405 nm using a microplate reader (Bio-Rad). Controls comprise non-biotinylated peptide and biotinylated peptide alone

For series [2], the system named is normal keratinocytes (KC). Nature of the series: Annexin-V-FITC FACScan apoptosis analysis. The conditions noted are these: FIG. 23. As for the experimental part:
(§4) The killing of HT29 cancer cells compared to normal keratinocytes, human umbilical vein epithelial cells (HUVECs) and skin fibroblasts by the peptide […] (IK2) (SEQ ID No: 16) was assessed. Briefly, cells were recovered by trypsinisation and resuspended into fresh culture medium. Cell viability was determined (0.4% Trypan Blue in phosphate buffered saline (PBS) 1:1 v/v), and 0.75×10^6 viable cells were passaged into a 25 cm^2 tissue culture flask then cultured for 24 hours at 37° C., 5% CO2 in air. Immediately prior to the addition of the IK2 peptide, culture media was removed by decanting and replaced with fresh media (2.0 mls minus volume addition of IK2 peptide). The treated cells were then cultured for 16 hours.
(§5) Cells were prepared as above for the positive control. Staurosporine (Sigma #S5921) was added to the culture media to a final concentration of 1 μM and the cells exposed to the apoptosis inducer for a maximum of 1-2 hours. For a negative control, vehicle alone (normal saline) was added to cell culture media.
(§6) Apoptotic cells were detected by FACScan analysis utilising Annexin-V-FITC (Sigma kit #A2214) to indicate apoptosis. For the analysis, cells were recovered by trypsinisation as above, and resuspended (˜1×10^6 cells/ml) into 1× binding buffer (Sigma #B9796). 500 μl of cell suspension was then aliquoted into a 10 ml plastic test tube, prior to the addition of 5 μl of Annexin-V FITC and 10 μl of propidium iodide (Sigma #P2667). Cells were incubated at room temperature for 10 minutes in the dark and fluorescence determined by flow cytometer. Living cells are not stained by either Annexin-V-FITC or propidium iodide, while early apoptosis is indicated by staining with Annexin-V-FITC only and necrotic cells are stained by both Annexin-V-FITC and propidium iodide.

In the next series the test system is HUVEC. In words: Annexin-V-FITC FACScan apoptosis analysis. As to conditions: FIG. 23. As for the experimental part: as §4, §5, §6
A further series relates to skin fibroblasts (SkinF). In words: Annexin-V-FITC FACScan apoptosis analysis. As to conditions: skin fibroblast (SkinF), FIG. 23. The method, then:
as §4, §5, §6

The subject of series [3] is HT29 colon cancer cells. In words: Cell proliferation assay using MTT. The conditions noted are these: for inhibition of proliferation (in words): relative to untreated control cells.
Method: (§7) An assay using the substrate methylthiazoletetrazolium (MTT) was utilised to determine the inhibitory affect of peptide agents on cancer cell proliferation. MTT substrate (CAT No. M-2128, Sigma) is cleaved in growing cells to yield a water insoluble salt. After solubilisation of the salt, a coloured product is produced that allows quantitation of the proliferative activity of the cultured cells. To prepare the MTT solution for use in the assay, 100 mg of MTT is mixed with 20 ml of PBS at pH 7.4. The resulting solution is filter sterilised (0.2 μM syringe filter) and stored at 4° C. protected from light until use.
(§8) Cells from the colon cancer cell line HT29 were seeded into wells of a 96-well microlitre plate in Dulbecco's Modified Eagle's Medium (DMEM) supplemented with 10% foetal bovine serum, glutamine, Hepes, and antibiotics at a concentration of 2,000 cells/100 μl and cultured for 24 hours in 5% CO2 in air at 37° C. After the 24 hour incubation period the test agent (solubilised in complete DMEM) is added to test wells to a final media volume of 200 μl and the microtitre plate is incubated for a further 48 to 72 hour period.
(§9) A 20 μl volume of the MTT solution prepared as above is then added to the test wells and the microtitre plate incubated for further 3 hours in 5% CO2 in air at 37° C. The plate is subsequently centrifuged for 5 minutes at 2,000 rpm in a microplate carrier. The supernatant is then removed from the wells using a multichannel pipette leaving MTT crystals in the wells.
(§10) To the wells is then added 150 μl of 6:1 v/v DMSO/glycine solution (0.1 M glycine and 0.1 M NaCl adjusted to pH 10.5 using NaOH) and the MTT crystals are dissolved by gently vortexing the microtitre plate. Absorbance is read at 550 nm using a microtitre plate reader.
Series [4] concerns HT29 colon cancer cells. In words: Annexin-V-FITC FACScan apoptosis analysis. In kind it is cell-based. As to conditions: peptide 16 hours, staurosporine 1 μM 1-2 hours. As for the experimental part: as §4, §5
Apoptotic cells were detected by FACScan analysis utilising Annexin-V-FITC (Sigma kit #A2214) to indicate apoptosis. For the analysis, cells were recovered by trypsinisation as above, and resuspended (˜1×10^6 cells/ml) into 1× binding buffer (Sigma #B9796). […] Cells were incubated at room temperature for 10 minutes in the dark and fluorescence determined by flow cytometer. […]

For a further series, the system named is cancer cell lines. In words: Proliferation of cancer cell lines with signal peptide alone. Format: cell-based. As to conditions: any cancer cell lines tested, data not shown.
Another series concerns the target T1, ERK1 (Homo sapiens, UniProt P27361).
T1 construct: GST (N, cleaved yes); made in house
In words: ELISA assay for detection of MAP kinase binding to biotinylated peptide. As to conditions: FIG. 2. As for the experimental part:
as §1, §2, §3

The test system of series [5] is HT29 colon cancer cells.
Method: as §7, §8, §9, §10
In the next series the target is T2, cytoplasmic domain of β6 (Homo sapiens, UniProt P18564).
T2 sequence (P18564 737-788): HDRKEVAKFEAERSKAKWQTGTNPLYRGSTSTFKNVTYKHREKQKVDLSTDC
Nature of the series: ELISA binding of MAP kinase fragments to the cytoplasmic domain of β6. The conditions noted are these: FIG. 1 and FIG. 4.

Where two headings read alike, the source gives them in different places. Ends that are not written are not given here.

T1 sequence (P27361 whole entry, species assumed): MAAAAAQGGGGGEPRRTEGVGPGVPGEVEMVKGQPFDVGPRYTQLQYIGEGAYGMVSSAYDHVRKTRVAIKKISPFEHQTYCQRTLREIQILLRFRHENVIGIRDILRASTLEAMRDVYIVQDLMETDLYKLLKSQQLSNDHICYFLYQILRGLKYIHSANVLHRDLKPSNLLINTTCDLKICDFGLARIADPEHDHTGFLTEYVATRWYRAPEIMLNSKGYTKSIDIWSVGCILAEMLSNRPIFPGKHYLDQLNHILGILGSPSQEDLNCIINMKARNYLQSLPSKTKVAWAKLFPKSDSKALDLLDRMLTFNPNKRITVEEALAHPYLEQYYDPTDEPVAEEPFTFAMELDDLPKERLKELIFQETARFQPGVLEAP
Method for cytoplasmic domain of β6: Primary antibody detection for the MAP kinase is then added to the test wells and the ELISA plate is allowed to stand for a further 30 minutes at room temperature before the antibody solution is decanted from the plate and the wells again washed with the wash solution. Optimal dilutions of primary detection antibody are pre-determined for each target MAP kinase. […] The wells are read at 405 nm using a microplate reader (Bio-Rad). […]
The binding of various MAP kinases to the cytoplasmic domain of β6 was tested using the assay described in Example 1.1. […] (SEQ ID No: 26), and the binding interaction detected using the anti-β6 antibody R6G9. […]

On to AAVALLPAVLLALLARSKAKWQTGTNPLYR [IK-1], for which, in the series with HUVEC cells (HUVEC, MTT), the “impact on proliferation of normal HUVEC cells” value (“impact on proliferation” below) is listed as “essentially no impact”. In addition, in series [1] (mouse, in vivo), the “mouse weight at day 28” value is recorded as “Substantially no difference”.

As to KEKLKNPLFK [β2 (10(4)], the “binding to ERK2” value with ERK2 was “bound by ERK2”.

As for AAVALLPAVLLALLARSKAKNPLYR [IK2], the induction of apoptosis entry (in series [2]; in the series on HUVEC; in the series on skin fibroblasts (SkinF)) was “essentially no apoptosis” in each case.

With `O=c1[nH]cc(F)c(=O)[nH]1` [5-FU, 5-Fluorouracil, reference compound], the “impact on proliferation” value with HUVEC cells was “toxicity”.

As to “Alkyl(4): stearic acid coupled to the RSKAKNPLYR peptide (also: stearic acid coupled (site not given here))”, the “inhibition of proliferation (in words)” value in the series on HT29 colon cancer cells [3] (HT29, MTT) is reported as “effective”.

Regarding “VTVLALGALAGVGVGRSKAKWQTGTNPLYR [Frag 5B3]”, the “proliferation of the cells relative to control cells” value in the series on HT29 colon cancer cells [3] (HT29, MTT, higher concentration of the peptides used, FIG. 5) is “about 37%”.

Take `CN[C@@H]1C[C@H]2O[C@@](C)([C@@H]1OC)n1c3ccccc3c3c4c(c5c6ccccc6n2c5c31)C(=O)NC4` [staurosporin, Staurosporine, reference compound]: the induction of apoptosis result in series [2] is listed as “induced apoptosis”; with HUVEC, “induced apoptosis”; in the series with skin fibroblasts (SkinF) it was “induced apoptosis”; in the series on HT29 colon cancer cells [4], “apoptosis was induced”.

“AAVALLPAVLLALLAP [nfkbp, K-FGF signal peptide]”: the “effect of signal peptide alone on proliferation” value in the series on cancer cell lines is “essentially no effect”.

In the case of RSKAKWQTGTNPLYR, in the series with ERK1, the “binding to ERK1” value is reported as “bind”. Moreover, in the series with ERK2, the “binding to ERK2” value is reported as “bind”.

Take RSKAKNPLYR [10(4)]: the entries for the “binding to ERK2” value with ERK2 and with ERK2 (listed as RSKAKNPLYR) were “binds to ERK2” and “still bound by ERK2”, respectively.

As to “AAVALLPAVLLALLA [nfkb, reference compound]”, the “mouse weight at day 28” value in series [1] (intra-tumoural injections, day 28 relative to time 0 / control group, FIG. 18B) is on record as “marked weight loss”.

Regarding RSRARNPLYR, in the series with ERK2, the “binding to ERK2” value was “still bound by ERK2”.

As for AAVALLPAVLLALLARSRARNPLYR [nf-b5-10-4], the “degree of inhibition compared with nf-b5-frag 5” value in the series with HT29 colon cancer cells [3] (HT29, MTT, FIG. 14G) is reported as “greater degree of inhibition”. Also, the “inhibition of proliferation (in words)” value with HT29 colon cancer cells [3] (HT29, MTT) is “inhibited proliferation”.

On to “GRKKRRQRRRPQCG [TAT-G, reference compound]”, for which, in the series with HT29 colon cancer cells [3] (HT29, FIG. 8 and FIG. 9), the “toxicity of carrier peptide alone” value is listed as “some toxicity”.

As to “AAVALLPAVLLALLARSKAKNPLYR (also: acetate salt) [nfkb10(4)acetate]”, in the series with HT29 colon cancer cells [3] (HT29, MTT, highest concentration of peptide employed), the “inhibition of proliferation at the highest concentration” value was “total inhibition”.

Regarding RARAKNPLYK, the “binding to ERK2” value in the series with ERK2 is listed as “still bound by ERK2”.

With AAVALLPAVLLALLAPRSKAKNPLYR [nfkb10(4)p], the “impact on proliferation” value with HUVEC cells is “relatively minimal”. Moreover, in the series on HT29 colon cancer cells [5], the “inhibition of proliferative response compared to 5-FU” value was “more effective”.

With “HRDLKPSNLAVNEDCELKILDFGLAR [p38 MAP kinase fragment]”, the “binding to the cytoplasmic domain of β6” value with cytoplasmic domain of β6 is on record as “bound”.
